Data on five compounds can be found in patent US20230233640A1, “ANTIVIRAL PREPARATION FROM CHESTNUT SHELLS OF CASTANEA SATIVA MILL” (Micronature S.R.L., priority 2019, published 2023).

Like-named read-outs stand apart in the source and are kept apart here.

The nature of data set [1]: Cytotoxicity in MT-4 cells (MTT). The format is cell-based. The settings on record: human. From the text: (§1) Cell lines were purchased from American Type Culture Collection (ATCC). The absence of mycoplasma contamination was checked periodically by the Hoechst staining method. Cell lines supporting the multiplication of RNA viruses were the following: CD4+ human T-cells containing an integrated HTLV-1 genome (MT-4); Madin Darby Bovine Kidney (MDBK) [ATCC CCL 22 (NBL-1) Bos Taurus]; Baby Hamster Kidney (BHK-21) [ATCC CCL 10 (C-13) Mesocricetus auratus], Vero cells (CCL-81; American Type Culture Collection, Manassas, VA, USA)
(§2) Cytotoxicity assays were run in parallel with antiviral assays.
Exponentially growing MT-4 cells were seeded at an initial density of 1 × 10^5 cells/ml in 96-well plates in RPMI-1640 medium, supplemented with 10% fetal bovine serum (FBS), 100 units/mL penicillin G and 100 µg/mL streptomycin. Cell cultures were then incubated at 37° C. in a humidified, 5% CO2 atmosphere, in the absence or presence of serial dilutions of test compounds. Cell viability was determined after 96 hrs at 37° C. by the 3-(4,5-dimethylthiazol-2-yl)-2,5-diphenyl-tetrazolium bromide (MTT) method (Pauwels et al. 1988).

A further data set concerns MDBK cells. Description: Cytotoxicity in MDBK cells (MTT). The format is cell-based, Bos Taurus. The settings on record: reference marked * (µM).
Source text: as §1, §2
MDBK cells were seeded in 96-well plates at an initial density of 6 × 10^5 and 1 × 10^6 cells/mL, respectively, in Minimum Essential Medium with Earle’s salts (MEM-E), L-glutamine, 1 mM sodium pyruvate and 25 mg/L kanamycin, supplemented with 10% horse serum (MDBK). Cell cultures were then incubated at 37° C. in a humidified, 5% CO2 atmosphere in the absence or presence of serial dilutions of test compounds. Cell viability was determined after 72 hrs at 37° C. by the MTT method. […] Vero cells (1 × 10^6) were plated in 6-well multiwells and incubated the next day with the substance at the same concentrations used in the antiviral assays. […]

A further data set concerns BVDV. It is filed as cell-based, bovine viral diarrhoea virus (BVDV) strain NADL. Conditions: reference marked * (µM); 50% protection of MDBK cells; read-out: In vitro efficacy EC50 BVDV.
The nature of data set [2]: Cytotoxicity in VERO cells. The format is cell-based. The settings on record: reference marked * (µM).
Source text: as §2

Turning to Enfuvirtide, in the data set on HIV-1, the “In vitro efficacy EC50 HIV-1” value is recorded as 0.017 µg/mL.
A word on the CC50: it is the concentration at which the toxic effect on the cells reaches its halfway point. In the case of enfuvirtide, the 50% cytotoxic concentration (CC50) at 96 h in data set [1] (mock-infected MT-4 cells, viability reduced by 50%, MTT method, read-out: Cytotoxicity in MT-4 cells CC50) was > 100 µg/mL.
Broadly, the EC50 is the concentration needed to bring the measured effect to its halfway point. Turning to `C[C@@]1(O)[C@H](O)[C@@H](CO)O[C@H]1n1cnc2c(=O)[nH]c(N)nc21` [NM 108], the 50% cytotoxic concentration (CC50) in the data set on MDBK cells was > 100 µM. For the same compound, the half-maximal effective concentration (EC50) with BVDV is 1.6 µM.
In data set [1], `O=C1Nc2ccc(Cl)cc2[C@@](C#CC2CC2)(C(F)(F)F)O1` [EFV, Efavirenz] returned a half-maximal cytotoxic concentration (CC50) at 96 h of 40 µM.
As to `CC[C@H](C)[C@H](NC(=O)[C@H](C)NC(=O)[C@H](CCC(=O)O)NC(=O)[C@H](CCC(=O)O)NC(=O)[C@H](CC(C)C)NC(=O)[C@H](CCCCN)NC(=O)[C@H](CCCCN)NC(=O)[C@H](CCSC)NC(=O)[C@H](CCC(=O)O)NC(=O)[C@H](Cc1ccc(O)cc1)NC(=O)[C@H](CCC(=O)O)NC(=O)[C@H](CC(C)C)NC(=O)[C@H](CC(=O)O)NC(=O)[C@H](CC(C)C)NC(=O)[C@H](Cc1ccccc1)NC(=O)[C@@H](NC(=O)[C@@H](NC(=O)[C@H](CC(N)=O)NC(=O)[C@@H](NC(=O)[C@H](CCC(N)=O)NC(=O)[C@H](CC(=O)O)NC(=O)[C@H](CC(C)C)NC(=O)[C@@H](N)CO)[C@@H](C)CC)C(C)C)[C@@H](C)O)C(=O)N[C@@H](CCCCN)C(=O)N[C@@H](CCCCN)C(=O)N[C@@H](CC(C)C)C(=O)N[C@@H](CCC(=O)O)C(=O)N[C@@H](CCC(=O)O)C(=O)N[C@@H](CO)C(=O)N[C@@H](Cc1ccc(O)cc1)C(=O)N[C@H](C(=O)N[C@@H](CC(=O)O)C(=O)N[C@@H](CC(C)C)C(=O)N[C@@H](CCCCN)C(=O)N[C@@H](CCC(=O)O)C(=O)N[C@@H](CC(C)C)C(=O)O)[C@@H](C)CC` [EK1], in data set [2], the cytotoxic concentration (CC50) was > 100 µM. The EC50 in the data set on SARS-CoV-2 turned out to be 5.4 µM.
